Results on 24 molecules are retold here after patent publication US12371428B2 (Exelixis, Inc., priority 2019, dated 2025).

Usually IC50 stands for the concentration that gives 50% inhibition.

Assay [1] deals with Human MER (residues 528-999) (Homo sapiens (Human), UniProt Q12866). The assay can be described thus: Human Mer kinase assay, HTRF KinEase (Example C-2). The format is biochemical. As to conditions: protocol of Example C-2 (other compounds). Summed up:
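Recombinant MER 528-999 (1 ng/well) in buffer with 5 mM MgCl2 and 1 mM DTT was reacted with biotinylated peptide and ATP at Km (40 μM) for 60 min at room temperature. EDTA stop with SA-XL665 and Eu3+ TK antibody, then 665/620 nm HTRF read; IC50 from 4-parameter fit.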
Background: TR-FRET usually uses a lanthanide donor and a delayed reading to cut background.

Assay [2] addresses Met (phospho-Met, HGF-stimulated PC-3 prostate cancer cells) (Homo sapiens (Human), UniProt P08581). The assay can be described thus: Met autophosphorylation ELISA in PC-3 cells (Example F). The format is cell-based. As to conditions: cellular activity; Met autophosphorylation ELISA in PC-3 cells; read-out: c-Met IC50. The procedure, abridged: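 Serum-starved (3 h) PC-3 cells were treated 1 h with compounds (8-point curve, 0.3% DMSO), then stimulated with 100 ng/mL human HGF for 10 min. Lysate phospho-Met (panTyr) was measured by sandwich ELISA, normalised to DMSO and reference-inhibitor controls. IC50 came from 4-parameter logistic fit.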
A general note: ELISA stands for enzyme-linked immunosorbent assay.

Sequence of Human MER (residues 528-999) (Q12866 528-999): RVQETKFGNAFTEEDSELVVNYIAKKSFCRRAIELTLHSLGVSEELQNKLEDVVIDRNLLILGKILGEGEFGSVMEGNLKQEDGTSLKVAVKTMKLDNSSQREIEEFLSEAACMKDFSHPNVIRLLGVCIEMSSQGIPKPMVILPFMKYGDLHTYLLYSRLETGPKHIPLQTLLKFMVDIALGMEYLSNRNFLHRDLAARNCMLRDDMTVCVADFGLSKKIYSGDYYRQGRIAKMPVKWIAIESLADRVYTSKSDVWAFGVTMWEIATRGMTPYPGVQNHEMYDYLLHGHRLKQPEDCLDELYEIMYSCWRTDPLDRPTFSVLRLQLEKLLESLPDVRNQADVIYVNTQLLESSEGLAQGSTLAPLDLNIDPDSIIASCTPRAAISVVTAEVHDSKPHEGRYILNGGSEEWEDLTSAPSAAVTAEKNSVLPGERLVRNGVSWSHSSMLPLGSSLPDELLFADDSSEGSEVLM
Sequence of Met (phospho-Met, HGF-stimulated PC-3 prostate cancer cells) (P08581 25-1390): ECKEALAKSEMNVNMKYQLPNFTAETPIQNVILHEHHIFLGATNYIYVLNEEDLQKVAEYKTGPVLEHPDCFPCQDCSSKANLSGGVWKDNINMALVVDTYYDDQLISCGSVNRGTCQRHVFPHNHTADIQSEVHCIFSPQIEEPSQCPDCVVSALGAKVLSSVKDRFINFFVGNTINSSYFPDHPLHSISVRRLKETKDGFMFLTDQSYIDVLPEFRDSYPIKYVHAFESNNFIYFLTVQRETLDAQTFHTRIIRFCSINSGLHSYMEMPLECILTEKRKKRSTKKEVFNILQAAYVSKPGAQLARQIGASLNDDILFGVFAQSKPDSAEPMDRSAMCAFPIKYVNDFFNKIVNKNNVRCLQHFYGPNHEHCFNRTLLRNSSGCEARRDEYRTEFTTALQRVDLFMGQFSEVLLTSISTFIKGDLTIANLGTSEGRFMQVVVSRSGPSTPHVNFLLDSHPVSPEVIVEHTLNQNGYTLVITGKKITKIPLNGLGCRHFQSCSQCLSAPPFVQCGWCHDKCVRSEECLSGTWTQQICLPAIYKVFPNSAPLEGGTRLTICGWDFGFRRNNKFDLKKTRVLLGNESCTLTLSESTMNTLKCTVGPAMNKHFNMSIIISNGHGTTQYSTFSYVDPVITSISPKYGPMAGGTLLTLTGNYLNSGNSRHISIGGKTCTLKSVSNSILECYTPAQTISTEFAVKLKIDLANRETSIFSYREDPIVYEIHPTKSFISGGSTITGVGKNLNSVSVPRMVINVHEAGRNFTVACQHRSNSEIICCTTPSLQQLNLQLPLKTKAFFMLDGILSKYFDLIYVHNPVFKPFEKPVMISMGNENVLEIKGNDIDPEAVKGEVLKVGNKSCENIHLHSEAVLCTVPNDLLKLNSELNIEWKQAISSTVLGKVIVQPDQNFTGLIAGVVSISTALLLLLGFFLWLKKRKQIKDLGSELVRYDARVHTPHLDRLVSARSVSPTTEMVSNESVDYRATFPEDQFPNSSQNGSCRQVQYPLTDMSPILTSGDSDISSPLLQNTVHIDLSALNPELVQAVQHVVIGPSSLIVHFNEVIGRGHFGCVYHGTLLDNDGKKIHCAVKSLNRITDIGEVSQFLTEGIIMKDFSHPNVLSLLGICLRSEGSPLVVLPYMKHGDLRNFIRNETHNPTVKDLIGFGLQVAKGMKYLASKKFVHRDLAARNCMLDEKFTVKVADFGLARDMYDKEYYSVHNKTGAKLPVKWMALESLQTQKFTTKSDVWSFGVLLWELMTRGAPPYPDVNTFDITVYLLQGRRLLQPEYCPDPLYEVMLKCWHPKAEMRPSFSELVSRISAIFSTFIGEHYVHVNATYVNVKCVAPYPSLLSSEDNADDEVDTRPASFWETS

Turning to `COCCOc1nc2c(Oc3ccc(NC(=O)c4c(COC)nc(C)c(-c5ccc(F)cc5C)c4O)cc3F)ccnc2cc1OC` [Compound 201, N-[3-Fluoro-4-[[7-methoxy-6-(2-methoxyethoxy)-1,5-naphthyridin-4-yl]oxy]phenyl]-5-(4-fluoro-2-methylphenyl)-4-hydroxy-2-(methoxymethyl)-6-methylpyridine-3-carboxamide], the IC50 in assay [1] and in assay [2] was below 100 nM in each case.
Take `CCc1nc(C)c(-c2ccc(F)cc2C)c(O)c1C(=O)Nc1ccc(Oc2ccnc3cc(OC)c(OC)nc23)c(F)c1` [Compound 202, N-[4-[(6,7-Dimethoxy-1,5-naphthyridin-4-yl)oxy]-3-fluorophenyl]-2-ethyl-5-(4-fluoro-2-methylphenyl)-4-hydroxy-6-methylpyridine-3-carboxamide]: the IC50 in assay [1] and in assay [2] was below 100 nM throughout.
As to `CCc1nc(C)c(-c2ccc(F)cc2C)c(O)c1C(=O)Nc1ccc(Oc2ccnc3cc(OC)c(OC)nc23)cc1` [Compound 203, N-[4-[(6,7-Dimethoxy-1,5-naphthyridin-4-yl)oxy]phenyl]-2-ethyl-5-(4-fluoro-2-methylphenyl)-4-hydroxy-6-methylpyridine-3-carboxamide], the half-inhibitory concentration (IC50) in assay [1] and in assay [2] was below 100 nM throughout.
Consider `CCc1nc(C)c(-c2ccc(F)cc2C)c(O)c1C(=O)Nc1ccc(Oc2ccnc3cc(OC)cnc23)c(F)c1` [Compound 204, 2-Ethyl-N-[3-fluoro-4-[(7-methoxy-1,5-naphthyridin-4-yl)oxy]phenyl]-5-(4-fluoro-2-methylphenyl)-4-hydroxy-6-methylpyridine-3-carboxamide], for which the IC50 in assay [1] and in assay [2] was below 100 nM each time.
Turning to `CCc1nc(C)c(-c2ccc(F)cc2C)c(O)c1C(=O)Nc1ccc(Oc2ccnc3cc(OC)cnc23)cc1` [Compound 205, 2-Ethyl-5-(4-fluoro-2-methylphenyl)-4-hydroxy-N-[4-[(7-methoxy-1,5-naphthyridin-4-yl)oxy]phenyl]-6-methylpyridine-3-carboxamide], the IC50 in assay [1] and in assay [2] was below 100 nM each time.
With `CCc1nc(C)c(-c2ccc(F)cc2C)c(O)c1C(=O)Nc1ccc(Oc2ccnc3ccc(OC)nc23)c(F)c1` [Compound 206, 2-Ethyl-N-[3-fluoro-4-[(6-methoxy-1,5-naphthyridin-4-yl)oxy]phenyl]-5-(4-fluoro-2-methylphenyl)-4-hydroxy-6-methylpyridine-3-carboxamide], the IC50 in assay [1] and in assay [2] was below 100 nM in each case.
`COc1cnc2c(Oc3ccc(NC(=O)c4ccc(C)n(-c5ccc(F)cc5)c4=O)cc3)ccnc2c1` [Compound 216, 1-(4-Fluorophenyl)-N-[4-[(7-methoxy-1,5-naphthyridin-4-yl)oxy]phenyl]-6-methyl-2-oxopyridine-3-carboxamide]: the IC50 in assay [1] and in assay [2] was below 100 nM throughout.
As to `COc1cnc2c(Oc3ccc(NC(=O)c4cnc(CO)c(-c5ccc(F)cc5)c4O)cc3F)ccnc2c1` [Compound 217, N-[3-Fluoro-4-[(7-methoxy-1,5-naphthyridin-4-yl)oxy]phenyl]-5-(4-fluorophenyl)-4-hydroxy-6-(hydroxymethyl)pyridine-3-carboxamide], the IC50 in assay [1] and in assay [2] was below 100 nM in each case.
Regarding `COc1cnc2c(Oc3ccc(NC(=O)c4cnc(CO)c(-c5ccc(F)cc5)c4O)cc3)ccnc2c1` [Compound 218, 5-(4-Fluorophenyl)-4-hydroxy-6-(hydroxymethyl)-N-[4-[(7-methoxy-1,5-naphthyridin-4-yl)oxy]phenyl]pyridine-3-carboxamide], the IC50 in assay [1] and in assay [2] was below 100 nM in each case.
As for `COc1cc2nccc(Oc3ccc(NC(=O)c4ccc(C)n(-c5ccc(F)cc5C)c4=O)cc3F)c2nc1OC` [Compound 219, N-[4-[(6,7-Dimethoxy-1,5-naphthyridin-4-yl)oxy]-3-fluorophenyl]-1-(4-fluoro-2-methylphenyl)-6-methyl-2-oxopyridine-3-carboxamide], the IC50 in assay [1] and in assay [2] was below 100 nM throughout.
For `COc1cnc2c(Oc3ccc(NC(=O)c4ccc(C)n(-c5ccc(F)cc5C)c4=O)cc3F)ccnc2c1` [Compound 220, N-[3-Fluoro-4-[(7-methoxy-1,5-naphthyridin-4-yl)oxy]phenyl]-1-(4-fluoro-2-methylphenyl)-6-methyl-2-oxopyridine-3-carboxamide], the IC50 in assay [1] and in assay [2] was below 100 nM in each case.
In the case of `COc1cc2nccc(Oc3ccc(NC(=O)c4cn(C)c(CO)c(-c5ccc(F)cc5)c4=O)cc3)c2nc1OC` [Compound 221, N-[4-[(6,7-Dimethoxy-1,5-naphthyridin-4-yl)oxy]phenyl]-5-(4-fluorophenyl)-6-(hydroxymethyl)-1-methyl-4-oxopyridine-3-carboxamide], the IC50 in assay [1] and in assay [2] was below 100 nM each time.
In the case of `COc1cnc2c(Oc3ccc(NC(=O)c4cn(C)c(CO)c(-c5ccc(F)cc5)c4=O)cc3F)ccnc2c1` [Compound 222, N-[3-Fluoro-4-[(7-methoxy-1,5-naphthyridin-4-yl)oxy]phenyl]-5-(4-fluorophenyl)-6-(hydroxymethyl)-1-methyl-4-oxopyridine-3-carboxamide], the half-maximal inhibitory concentration (IC50) in assay [1] and in assay [2] was below 100 nM in each case.
Regarding `COc1cnc2c(Oc3ccc(NC(=O)c4cn(C)c(CO)c(-c5ccc(F)cc5)c4=O)cc3)ccnc2c1` [Compound 223, 5-(4-Fluorophenyl)-6-(hydroxymethyl)-N-[4-[(7-methoxy-1,5-naphthyridin-4-yl)oxy]phenyl]-1-methyl-4-oxopyridine-3-carboxamide], the IC50 in assay [1] and in assay [2] was below 100 nM throughout.
`COc1ccc2nccc(Oc3ccc(NC(=O)c4cn(C)c(CO)c(-c5ccc(F)cc5)c4=O)cc3F)c2n1` [Compound 224, N-[3-Fluoro-4-[(6-methoxy-1,5-naphthyridin-4-yl)oxy]phenyl]-5-(4-fluorophenyl)-6-(hydroxymethyl)-1-methyl-4-oxopyridine-3-carboxamide]: the IC50 is below 100 nM in assay [1] and 100 to 300 nM in assay [2].
In the same order, the values of `COc1cc2nccc(Oc3ccc(NC(=O)c4ccc(C)n(-c5ccc(F)cc5C)c4=O)cc3)c2nc1OC` [Compound 225, N-[4-[(6,7-Dimethoxy-1,5-naphthyridin-4-yl)oxy]phenyl]-1-(4-fluoro-2-methylphenyl)-6-methyl-2-oxopyridine-3-carboxamide] are below 100 nM and below 100 nM.
In the case of `COc1cnc2c(Oc3ccc(NC(=O)c4ccc(C)n(-c5ccc(F)cc5C)c4=O)cc3)ccnc2c1` [Compound 226, 1-(4-Fluoro-2-methylphenyl)-N-[4-[(7-methoxy-1,5-naphthyridin-4-yl)oxy]phenyl]-6-methyl-2-oxopyridine-3-carboxamide], the IC50 in assay [1] and in assay [2] was below 100 nM throughout.
As for `COCCOc1nc2c(Oc3ccc(NC(=O)c4ccc(C)n(-c5ccc(F)cc5)c4=O)cc3F)ccnc2cc1OC` [Compound 227, N-[3-Fluoro-4-[[7-methoxy-6-(2-methoxyethoxy)-1,5-naphthyridin-4-yl]oxy]phenyl]-1-(4-fluorophenyl)-6-methyl-2-oxopyridine-3-carboxamide], the IC50 in assay [1] and in assay [2] was below 100 nM each time.
Consider `COCCOc1nc2c(Oc3ccc(NC(=O)c4cn(C)c(CO)c(-c5ccc(F)cc5)c4=O)cc3F)ccnc2cc1OC` [Compound 228, N-[3-Fluoro-4-[[7-methoxy-6-(2-methoxyethoxy)-1,5-naphthyridin-4-yl]oxy]phenyl]-5-(4-fluorophenyl)-6-(hydroxymethyl)-1-methyl-4-oxopyridine-3-carboxamide], for which the IC50 in assay [1] and in assay [2] was below 100 nM throughout.
As to `COc1cc2nccc(Oc3ccc(NC(=O)c4ccc(C)n(-c5ccc(F)cc5)c4=O)cc3)c2nc1OC` [Compound 229, N-[4-[(6,7-Dimethoxy-1,5-naphthyridin-4-yl)oxy]phenyl]-1-(4-fluorophenyl)-6-methyl-2-oxopyridine-3-carboxamide], the IC50 in assay [1] and in assay [2] was below 100 nM in each case.
Consider `COc1ccc2nccc(Oc3ccc(NC(=O)c4n[nH]c(C)c(-c5ccc(F)cc5C)c4=O)cc3F)c2n1` [Compound 230, N-[3-Fluoro-4-[(6-methoxy-1,5-naphthyridin-4-yl)oxy]phenyl]-5-(4-fluoro-2-methylphenyl)-6-methyl-4-oxo-1H-pyridazine-3-carboxamide], for which the values for the IC50 in assay [1] and in assay [2] were below 100 nM and 100 to 300 nM, respectively.
Turning to `COc1ccc2nccc(Oc3ccc(NC(=O)c4cnc(CO)c(-c5ccc(F)cc5)c4O)cc3F)c2n1` [Compound 231, N-[3-Fluoro-4-[(6-methoxy-1,5-naphthyridin-4-yl)oxy]phenyl]-5-(4-fluorophenyl)-4-hydroxy-6-(hydroxymethyl)pyridine-3-carboxamide], the IC50 in assay [1] and in assay [2] was below 100 nM in each case.
Take `COc1ccc2nccc(Oc3ccc(NC(=O)c4cnc(C)n(-c5ccc(F)cc5)c4=O)cc3F)c2n1` [Compound 232, N-[3-Fluoro-4-[(6-methoxy-1,5-naphthyridin-4-yl)oxy]phenyl]-1-(4-fluorophenyl)-2-methyl-6-oxopyrimidine-5-carboxamide]: the IC50 in assay [1] and in assay [2] was below 100 nM in each case.
Turning to `COc1ccc2nccc(Oc3ccc(NC(=O)c4c(C)nc(C)n(-c5ccc(F)cc5)c4=O)cc3F)c2n1` [Compound 233, N-[3-Fluoro-4-[(6-methoxy-1,5-naphthyridin-4-yl)oxy]phenyl]-1-(4-fluorophenyl)-2,4-dimethyl-6-oxopyrimidine-5-carboxamide], the IC50 was below 100 nM in assay [1] and 100 to 300 nM in assay [2].
